Measurements as given in US20240018125A1, “CYCLIC ISOTHIOUREA DERIVATIVES AS CXCR4 MODULATORS” (ERMIUM THERAPEUTICS, priority 2020, published 2024).
Counter-ions that a name gives are not always drawn.

Tested on: peripheral blood mononuclear cells (PBMCs) from healthy donors
Experiment: IFN production by R848-activated PBMCs, quantified with twINNE luciferase reporter cell line
Assay type: cell-based, human
Conditions: Homo sapiens, PBMC; read-out: IC50 of anti-inflammatory activity (IFN production by activated PBMCs)
Description: The blood from healthy donors was obtained from “Etablissement Français du Sang” (convention #19/EFS/029), Paris, France.
In vitro experiments were performed using human peripheral blood mononuclear cells (PBMCs) isolated by density centrifugation from peripheral blood leukocyte separation medium, lymphoprep (Stemcell Technologies).
PBMCs were cultured in RPMI 1640 (Sigma-Aldrich, MO, USA) containing 10% heat-inactivated fetal bovine serum (Sigma-Aldrich, MO, USA) at 37° C./5% CO2.
The PBMCs used herein were prepared as described in part A “immune cells preparation”, above. PBMCs were seeded at 4.10^6/mL. Cells were pre-treated with different concentration of examples according to the invention. Cells were then stimulated with the TLR7/8 agonist resiquimod—R848 (Sigma-Aldrich, MO, USA) at 5 μg/mL.
To quantify the secretion of functional IFN, a biological assay based on a stable cell line where luciferase reporter gene is controlled by five Interferon-Stimulated Response Elements (twINNE cell line) was used. First, supernatants of R848-stimulated PBMCs (see part B above) were harvested after 24 h of stimulation and frozen at −20° C. for storage. Then, supernatants were dispensed in culture wells of a 96-well plate containing 35.103 twINNE cells per well in Dulbecco's Modified Eagle's Medium supplemented with 10% Foetal Bovine Serum, 100 U/mL Penicillin and 100 μg/mL Streptomycin (1% Pen-Strep) and 1 mM glutamine (Sigma-Aldrich, MO, USA) at 37° C./5% CO2. After 24 h of culture, luciferase activity was determined by adding 60 μL of Bright-Glo reagents (Promega, Wisconsin, USA) to culture wells and measuring bioluminescence with EnSpire Multimode Plate Reader (PerkinElmer, Massachusetts, USA). When stated, for IC50 calculation, dose-response curves fitted using the nonlin fit (variable slope) analysis in GraphPad Prism software (GraphPad Software, Califronia, USA).
IFN production was quantified (as specified in Materials and Methods, part C “quantification of interferon secretion”) using twINNE reporter cell line.

SMILES	IC50 [µM]
Clc1ccc2c(c1)CN1C(CSC3=NCC4(CC4)N3)=CSC1=N2 [Example 68, 3-(((4,6-diazaspiro[2.4]hept-5-en-5-yl)thio)methyl)-7-chloro-5H-thiazolo[2,3-b]quinazoline dihydrochloride]	≤ 10
C(CCN1CCCC1)CSC1=NCCN1 [Example 175, 2-((4-(pyrrolidin-1-yl)butyl)thio)-4,5-dihydro-1H-imidazole dihydrochloride]	> 32
Fc1ccc2c(c1)N=C1SC=C(CSC3=NCc4ccccc4N3)N1C2 [Example 82, 3-(((1,4-dihydroquinazolin-2-yl)thio)methyl)-8-fluoro-5H-thiazolo[2,3-b]quinazoline dihydrochloride]	≤ 10
c1ccc2c(c1)CN=C(SCCN1CCOCC1)N2 [Example 155, 4-(2-((1,4-dihydroquinazolin-2-yl)thio)ethyl)morpholine dihydrochloride]	> 32
CN1CCC(SC2=NC(C)(C)c3ccccc3N2)C1 (stereo not shown) [Example 98, 4,4-dimethyl-2-((1-methylpyrrolidin-3-yl)thio)-1,4-dihydroquinazoline dihydrochloride]	> 32
COc1ccc(C[C@@H]2CN3C(CSC4=NCc5ccccc5N4)=CSC3=N2)cc1 [Example 124, (R)-3-(((1,4-dihydroquinazolin-2-yl)thio)methyl)-6-(4-methoxybenzyl)-5,6-dihydroimidazo[2,1-b]thiazole dihydrochloride]	≤ 10
Clc1cccc2c1CN=C(SCC1=CSC3=NC(Cc4ccccc4)CN13)N2 (stereo not shown) [Example 118, 6-benzyl-3-(((5-chloro-1,4-dihydroquinazolin-2-yl)thio)methyl)-5,6-dihydroimidazo[2,1-b]thiazole dihydrochloride]	≤ 10
CN1CCN=C1SCC1=CSC2=Nc3ccc(Cl)cc3CN12 [Example 45, 7-chloro-3-(((1-methyl-4,5-dihydro-1H-imidazol-2-yl)thio)methyl)-5H-thiazolo[2,3-b]quinazoline dihydrochloride]	≤ 10
Fc1cccc2c1CN=C(SCC1=CSC3=NC(Cc4ccccc4)CN13)N2 (stereo not shown) [Example 117, 6-benzyl-3-(((5-fluoro-1,4-dihydroquinazolin-2-yl)thio)methyl)-5,6-dihydroimidazo[2,1-b]thiazole dihydrochloride]	≤ 10
Clc1ccc2c(c1)CN1C(CSC3=NCCN3Cc3ccccc3)=CSC1=N2 [Example 47, 3-(((1-benzyl-4,5-dihydro-1H-imidazol-2-yl)thio)methyl)-7-chloro-5H-thiazolo[2,3-b]quinazoline dihydrochloride]	≤ 10
Cc1cccc(CC2CN3C(CSC4=NCc5ccccc5N4)=CSC3=N2)c1 (stereo not shown) [Example 112, 3-(((1,4-dihydroquinazolin-2-yl)thio)methyl)-6-(3-methylbenzyl)-5,6-dihydroimidazo[2,1-b]thiazole dihydrochloride]	≤ 10
Fc1ccc2c(c1)CN=C(SCCCCN1CCCC1)N2 [Example 152, 6-fluoro-2-((4-(pyrrolidin-1-yl)butyl)thio)-1,4-dihydroquinazoline dihydrochloride]	10 to 32
C1=C(CSC2=NCc3ccccc3N2)N2CC(CCc3ccccc3)N=C2S1 (stereo not shown) [Example 126, 3-(((1,4-dihydroquinazolin-2-yl)thio)methyl)-6-phenethyl-5,6-dihydroimidazo[2,1-b]thiazole dihydrochloride]	≤ 10
CC1(C)CN=C(SCC2=CSC3=Nc4ccccc4CN23)N1 [Example 5, 3-(((5,5-dimethyl-4,5-dihydro-1H-imidazol-2-yl)thio)methyl)-5H-thiazolo[2,3-b]quinazoline dihydrochloride]	10 to 32
c1ccc2c(c1)NC(SCCCCN1CCCC1)=NC21CC1 [Example 180, 2′-((4-(pyrrolidin-1-yl)butyl)thio)-1′H-spiro[cyclopropane-1,4′-quinazoline] dihydrochloride]	10 to 32
c1ccc2c(c1)CCN=C(SCCCN1CCCC1)N2 [Example 190, 2-((3-(pyrrolidin-1-yl)propyl)thio)-4,5-dihydro-3H-benzo[d][1,3]diazepine dihydrochloride]	10 to 32
C1CCNC(SCCCCN2CCCC2)=NC1 [Example 178, 2-((4-(pyrrolidin-1-yl)butyl)thio)-4,5,6,7-tetrahydro-1H-1,3-diazepine dihydrochloride]	> 32

SMILES	IC50 [µM]
CN1CCCC1CSC1=NCC(Cc2ccccc2)N1 (stereo not shown) [Example 53, 5-benzyl-2-(((1-methylpyrrolidin-2-yl)methyl)thio)-4,5-dihydro-1H-imidazole dihydrochloride]	10 to 32
Clc1ccc2c(c1)CN=C(SCCCCN1CCCCC1)N2 [Example 164, 6-chloro-2-((4-(piperidin-1-yl)butyl)thio)-1,4-dihydroquinazoline dihydrochloride]	≤ 10
F[C@@H]1CCN(CCSC2=NCc3ccccc3N2)C1 [Example 157, (R)-2-((2-(3-fluoropyrrolidin-1-yl)ethyl)thio)-1,4-dihydroquinazoline dihydrochloride]	10 to 32
Clc1ccc(C2CN3C(CSC4=NCc5ccccc5N4)=CSC3=N2)cc1 (stereo not shown) [Example 14, 6-(4-chlorophenyl)-3-(((3,4-dihydroquinazolin-2-yl)thio)methyl)-5,6-dihydroimidazo[2,1-b]thiazole dihydrochloride]	≤ 10
c1ccc(COC2CCN(CCSC3=NCc4ccccc4N3)C2)cc1 (stereo not shown) [Example 143, 2-((2-(3-(benzyloxy)pyrrolidin-1-yl)ethyl)thio)-1,4-dihydroquinazoline dihydrochloride]	≤ 10
FC1(F)CC12CCN(CCSC1=NCc3ccccc3N1)C2 (stereo not shown) [Example 132, 2-((2-(1,1-difluoro-5-azaspiro[2.4]heptan-5-yl)ethyl)thio)-3,4-dihydroquinazoline]	10 to 32
COc1ccc(CC2(C)CN=C(SCC3=CSC4=NCc5ccccc5CN34)N2)cc1 (stereo not shown) [Example 34, 3-(((5-(4-methoxybenzyl)-5-methyl-4,5-dihydro-1H-imidazol-2-yl)thio)methyl)-5,10-dihydrobenzo[e]thiazolo[3,2-a][1,3]diazepine dihydrochloride]	≤ 10
C[C@@H](CSC1=NCc2cc(Cl)ccc2N1)N1CCCC1 [Example 166, (S)-6-chloro-2-((2-(pyrrolidin-1-yl)propyl)thio)-1,4-dihydroquinazoline dihydrochloride]	≤ 10
Clc1ccc2c(ccn2CCSC2=NCc3ccccc3N2)c1 [Example 74, 2-((2-(5-chloro-1H-indol-1-yl)ethyl)thio)-3,4-dihydroquinazoline hydrochloride]	> 32
CC(CSC1=NCc2ccccc2N1)N1CCCC1 (stereo not shown) [Example 129, 2-((2-(pyrrolidin-1-yl)propyl)thio)-1,4-dihydroquinazoline dihydrochloride]	≤ 10
C1=C(CSC2=NCc3ccccc3N2)N2C(=Nc3ccccc3C2c2ccccc2)S1 (stereo not shown) [Example 43, 3-(((3,4-dihydroquinazolin-2-yl)thio)methyl)-5-phenyl-5H-thiazolo[2,3-b]quinazoline dihydrochloride]	≤ 10
Fc1ccc2c(c1)NC(SCC1=CSC3=NC(Cc4ccccc4)CN13)=NC2 (stereo not shown) [Example 89, 6-benzyl-3-(((7-fluoro-1,4-dihydroquinazolin-2-yl)thio)methyl)-5,6-dihydroimidazo[2,1-b]thiazole dihydrochloride]	≤ 10
C1=C(CSC2=NCc3ccccc3N2)N2Cc3cccnc3N=C2S1 [Example 28, 3-(((3,4-dihydroquinazolin-2-yl)thio)methyl)-5H-pyrido[2,3-d]thiazolo[3,2-a]pyrimidine trihydrochloride]	≤ 10
CC1(c2ccccc2)CN=C(SCC2=CSC3=Nc4ccc(Cl)cc4CN23)N1 (stereo not shown) [Example 72, 7-chloro-3-(((5-methyl-5-phenyl-4,5-dihydro-1H-imidazol-2-yl)thio)methyl)-5H-thiazolo[2,3-b]quinazoline dihydrochloride]	≤ 10
Clc1ccccc1CC1CN2C(CSC3=NCc4ccccc4N3)=CSC2=N1 (stereo not shown) [Example 123, 6-(2-chlorobenzyl)-3-(((1,4-dihydroquinazolin-2-yl)thio)methyl)-5,6-dihydroimidazo[2,1-b]thiazole dihydrochloride]	≤ 10
CC1(c2ccccc2)CN2C(CSC3=NCc4ccccc4N3)=CSC2=N1 (stereo not shown) [Example 38, 3-(((3,4-dihydroquinazolin-2-yl)thio)methyl)-6-methyl-6-phenyl-5,6-dihydroimidazo[2,1-b]thiazole dihydrochloride]	≤ 10
Brc1cccc2c1N=C1SC=C(CSC3=NCc4ccccc4N3)N1C2 [Example 85, 9-bromo-3-(((1,4-dihydroquinazolin-2-yl)thio)methyl)-5H-thiazolo[2,3-b]quinazoline dihydrochloride]	≤ 10
